# Assay: Amount of GLCN present following heating (HPAEC-PAD recovery)
# Assay type: physicochemical
# Description: To determine the amount of GLCN that remains following exposing GLCN beverages to a high temperature, such as those used in pasteurization, the following methods were used.
# A beverage sample as described in the preceding examples containing […] of GLCN was dispersed in 25 g of 1.0 N HCl in a 50-mL polypropylene centrifuge tube and capped tightly. The sample was mixed for 30 seconds using a vortex mixer, then placed in a water bath at 37° C. The sample was removed from the water bath at 15-minute intervals, mixed for 30 seconds on a vortex mixer, then returned to the water bath. This cycle was repeated until the sample had been in the water bath for one hour.
# After heating, the sample was mixed for 30 seconds on a vortex mixer, then centrifuged for 10 minutes to separate the liquid and solid phases. Fats, oils or lipids in the sample formed a third layer at the top of the tube. A 1-g aliquot of the aqueous sample portion was diluted 100-fold with deionized water, then transferred to an autosampler vial with filter cap.
# The free glucosamine in prepared samples was determined using high performance anion-exchange chromatography with pulsed amperometric detection ([…]). The system included an EG40 eluent generator, GP50 gradient pump, AS40 autosampler, LC25 column oven, and ED40 electrochemical detector, all produced by Dionex Corporation (Sunnyvale, Calif.).
# The method was adapted from Dionex Corporation Technical Note 40. A Dionex CarboPac PA-20 column was used in place of the PA-10 described in the Technical Note. The eluent was 8 mM KOH at 0.5 mL/min. The column and detector were maintained at 30° C. The injection volume was 10 μL. The standard was glucosamine hydrochloride at 10.8 mg/L. Fermentation broth samples were diluted five-fold with deionized water, ASTM Type II, and filtered through 0.2 μ vial filters in the autosampler. Multiple standards were analyzed before and after each sample set.
structure (smiles),measurement,setting,value
"N[C@H]1C(O)O[C@H](CO)[C@@H](O)[C@@H]1O (some centres unmarked) [GLCN, glucosamine]",% GlcNHCl Recovered,"Grape juice, boil, 5 min",102%
same,% GlcNHCl Recovered,"Lemonade, 71 ° C., 20 min",101%
same,% GlcNHCl Recovered,"Lemonade, 90 ° C., 20 sec",101%
same,% GlcNHCl Recovered,"Lemonade, boil, 5 min",100%
same,% GlcNHCl Recovered,"Lemonade, room temperature",102%
